Laboratory results published in PubChem BioAssay (NCI).
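96-well plates; 48 h exposure; 5 concentrations. Endpoints by linear interpolation between flanking doses. Not reached: highest tested concentration assigned. GI50 = concentration required for 50% inhibition of growth. TGI: concentration producing complete growth inhibition.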

Key:
Assay in all cases: growth of human tumour cells (NCI), 48 h
SN12C renal = tested on: SN12C renal
OVCAR-4 ovarian = tested on: OVCAR-4 ovarian
OVCAR-3 ovarian = tested on: OVCAR-3 ovarian
T-47D breast = tested on: T-47D breast
SF-539 CNS = tested on: SF-539 CNS
CAKI-1 renal = tested on: CAKI-1 renal
NCI-H23 lung = tested on: NCI-H23 lung
LOX IMVI melanoma = tested on: LOX IMVI melanoma
SF-295 CNS = tested on: SF-295 CNS
TK-10 renal = tested on: TK-10 renal
SK-MEL-28 melanoma = tested on: SK-MEL-28 melanoma
HCT-15 colon = tested on: HCT-15 colon
SK-MEL-2 melanoma = tested on: SK-MEL-2 melanoma
RXF 393 renal = tested on: RXF 393 renal
HOP-62 NSCLC = tested on: HOP-62 NSCLC
EKVX NSCLC = tested on: EKVX NSCLC
SF-268 CNS = tested on: SF-268 CNS
CCRF-CEM leukemia = tested on: CCRF-CEM leukemia
MALME-3M melanoma = tested on: MALME-3M melanoma
U251 CNS = tested on: U251 CNS
A498 renal = tested on: A498 renal
MDA-MB-468 breast = tested on: MDA-MB-468 breast
UACC-62 melanoma = tested on: UACC-62 melanoma
NCI-H460 lung = tested on: NCI-H460 lung
MDA-MB-435 = tested on: MDA-MB-435
DU-145 prostate = tested on: DU-145 prostate
HCC-2998 colon = tested on: HCC-2998 colon
ACHN renal = tested on: ACHN renal
SW-620 colon = tested on: SW-620 colon
HCT-116 colon = tested on: HCT-116 colon
SK-MEL-5 melanoma = tested on: SK-MEL-5 melanoma
K-562 leukemia = tested on: K-562 leukemia
NCI-H522 lung = tested on: NCI-H522 lung
PC-3 prostate = tested on: PC-3 prostate
OVCAR-8 ovarian = tested on: OVCAR-8 ovarian
MCF7 breast = tested on: MCF7 breast
RPMI-8226 leukemia = tested on: RPMI-8226 leukemia
HOP-92 NSCLC = tested on: HOP-92 NSCLC
HT29 colon = tested on: HT29 colon
UO-31 renal = tested on: UO-31 renal
BT-549 breast = tested on: BT-549 breast
COLO 205 colon = tested on: COLO 205 colon
IGROV1 ovarian = tested on: IGROV1 ovarian
MDA-MB-231 breast = tested on: MDA-MB-231 breast
HL-60(TB) leukemia = tested on: HL-60(TB) leukemia
SR leukemia = tested on: SR leukemia
KM12 colon = tested on: KM12 colon
OVCAR-5 ovarian = tested on: OVCAR-5 ovarian
SK-OV-3 ovarian = tested on: SK-OV-3 ovarian
SNB-19 CNS = tested on: SNB-19 CNS
UACC-257 melanoma = tested on: UACC-257 melanoma
786-0 renal = tested on: 786-0 renal
A549 NSCLC = tested on: A549 NSCLC
NCI-H226 lung = tested on: NCI-H226 lung

`COc1cc(/C=C/C(=O)c2cnn(-c3cc(=O)[nH]c4ccc(Br)cc34)c2C)cc(OC)c1OC` showed a GI50 (SN12C renal) of 2.94 µM, a TGI (SN12C renal) of 11.6 µM and a GI50 (OVCAR-4 ovarian) of 5.2 µM. For the same compound, the TGI (OVCAR-4 ovarian) was over 100 µM, the GI50 (OVCAR-3 ovarian) was 3.45 µM and the TGI (OVCAR-3 ovarian) was 12.1 µM. The GI50 (T-47D breast) was 3.06 µM, the TGI (T-47D breast) was 18.8 µM and the GI50 (SF-539 CNS) was 2.03 µM. The TGI (SF-539 CNS) was 4.54 µM, the GI50 (CAKI-1 renal) was 4.11 µM and the TGI (CAKI-1 renal) was 31.3 µM. It also gave a GI50 (NCI-H23 lung) of 1.92 µM, a TGI (NCI-H23 lung) of 4.33 µM and a GI50 (LOX IMVI melanoma) of 1.49 µM. It also gave a TGI (LOX IMVI melanoma) of 3.35 µM, a GI50 (SF-295 CNS) of 2.4 µM and a TGI (SF-295 CNS) of 7.75 µM. The GI50 (TK-10 renal) was 3.8 µM, the TGI (TK-10 renal) was 24.1 µM and the GI50 (SK-MEL-28 melanoma) was 2.84 µM. It also gave a TGI (SK-MEL-28 melanoma) of 8.75 µM, a GI50 (HCT-15 colon) of 1.71 µM and a TGI (HCT-15 colon) of 3.92 µM. The GI50 (SK-MEL-2 melanoma) was 3.52 µM, the TGI (SK-MEL-2 melanoma) was 12.2 µM and the GI50 (RXF 393 renal) was 1.87 µM. It also gave a TGI (RXF 393 renal) of 3.95 µM, a GI50 (HOP-62 NSCLC) of 3.55 µM and a TGI (HOP-62 NSCLC) of 17.2 µM. The GI50 (EKVX NSCLC) was 2.96 µM, the TGI (EKVX NSCLC) was 13.4 µM and the GI50 (SF-268 CNS) was 3.76 µM. For the same compound, the TGI (SF-268 CNS) was over 100 µM, the GI50 (CCRF-CEM leukemia) was 2.88 µM and the TGI (CCRF-CEM leukemia) was over 100 µM. For the same compound, the GI50 (MALME-3M melanoma) was 4.66 µM, the TGI (MALME-3M melanoma) was 22.3 µM and the GI50 (U251 CNS) was 2.54 µM. For the same compound, the TGI (U251 CNS) was 7.37 µM, the GI50 (A498 renal) was 28.5 µM and the TGI (A498 renal) was 51.6 µM. The GI50 (MDA-MB-468 breast) was 1.93 µM, the TGI (MDA-MB-468 breast) was 5.43 µM and the GI50 (UACC-62 melanoma) was 1.79 µM. For the same compound, the TGI (UACC-62 melanoma) was 4 µM, the GI50 (NCI-H460 lung) was 2.39 µM and the TGI (NCI-H460 lung) was 5.37 µM. The GI50 (MDA-MB-435) was 2.72 µM, the TGI (MDA-MB-435) was 8.65 µM and the GI50 (DU-145 prostate) was 3.61 µM. For the same compound, the TGI (DU-145 prostate) was 30.5 µM, the GI50 (HCC-2998 colon) was 3.3 µM and the TGI (HCC-2998 colon) was 11 µM. For the same compound, the GI50 (ACHN renal) was 1.84 µM, the TGI (ACHN renal) was 4.31 µM and the GI50 (SW-620 colon) was 3.09 µM. For the same compound, the TGI (SW-620 colon) was 8.61 µM, the GI50 (HCT-116 colon) was 3.27 µM and the TGI (HCT-116 colon) was 11.5 µM. The GI50 (SK-MEL-5 melanoma) was 3.05 µM, the TGI (SK-MEL-5 melanoma) was 10.7 µM and the GI50 (K-562 leukemia) was 2.86 µM. The TGI (K-562 leukemia) was over 100 µM, the GI50 (NCI-H522 lung) was 2.26 µM and the TGI (NCI-H522 lung) was 5.98 µM. The GI50 (PC-3 prostate) was 5.19 µM, the TGI (PC-3 prostate) was over 100 µM and the GI50 (OVCAR-8 ovarian) was 3.48 µM. The TGI (OVCAR-8 ovarian) was over 100 µM, the GI50 (MCF7 breast) was 2.16 µM and the TGI (MCF7 breast) was 9.06 µM. For the same compound, the GI50 (RPMI-8226 leukemia) was 2.84 µM, the TGI (RPMI-8226 leukemia) was over 100 µM and the GI50 (HOP-92 NSCLC) was 8.2 µM. The TGI (HOP-92 NSCLC) was over 100 µM, the GI50 (HT29 colon) was 2.2 µM and the TGI (HT29 colon) was 5.07 µM. For the same compound, the GI50 (UO-31 renal) was 2.83 µM, the TGI (UO-31 renal) was 12.5 µM and the GI50 (BT-549 breast) was 2.29 µM. It also gave a TGI (BT-549 breast) of 6.28 µM, a GI50 (COLO 205 colon) of 3.35 µM and a TGI (COLO 205 colon) of 10.9 µM. For the same compound, the GI50 (IGROV1 ovarian) was 2.23 µM, the TGI (IGROV1 ovarian) was 6.33 µM and the GI50 (MDA-MB-231 breast) was 3.11 µM. For the same compound, the TGI (MDA-MB-231 breast) was 13.7 µM, the GI50 (HL-60(TB) leukemia) was 3 µM and the TGI (HL-60(TB) leukemia) was over 100 µM. The GI50 (SR leukemia) was 2.44 µM, the TGI (SR leukemia) was over 100 µM and the GI50 (KM12 colon) was 3.48 µM. It also gave a TGI (KM12 colon) of 14.6 µM, a GI50 (OVCAR-5 ovarian) of 3.09 µM and a TGI (OVCAR-5 ovarian) of 10.7 µM. For the same compound, the GI50 (SK-OV-3 ovarian) was 4.34 µM, the TGI (SK-OV-3 ovarian) was over 100 µM and the GI50 (SNB-19 CNS) was 3.25 µM. It also gave a TGI (SNB-19 CNS) of 12.6 µM, a GI50 (UACC-257 melanoma) of 7.78 µM and a TGI (UACC-257 melanoma) of 48.5 µM. For the same compound, the GI50 (786-0 renal) was 3.63 µM, the TGI (786-0 renal) was 14.3 µM and the GI50 (A549 NSCLC) was 3.52 µM. The TGI (A549 NSCLC) was over 100 µM, the GI50 (NCI-H226 lung) was 2.49 µM and the TGI (NCI-H226 lung) was 7.38 µM.
